From paper PMC10119282, “Molecular characterization of AIFM2/FSP1 inhibition by iFSP1-like molecules” (Cell Death & Disease, 2023)

Tests used:
Type in all cases: cell-based, murine
[1] = tested on: Pfa1 Gpx4−/− overexpressing hFSP1 F360L; assay: Cell viability (Alamar blue), hFSP1 F360L
Method: (§1) Cell Lines. 4-hydroxytamoxifen (TAM)-inducible Gpx4^−/− murine immortalized fibroblasts (Pfa1) were reported previously. These cells harbor two loxP-flanked Gpx4 alleles and stably express TAM inducible Cre recombinase allowing the genetic deletion of Gpx4 at will. For all experiments using Gpx4^−/− the well were treated with 4-hydroxitamoxifen (TAM) 1 µM. All cells were cultured with were cultured in DMEM-high glucose (4.5 g glucose/L) with 10% fetal bovine serum (FBS), Glutamax, and 1% penicillin/streptomycin (Gibco, Thermo Fischer) at 37 °C with 5% CO2 and verified to be negative for mycoplasma.
(§2) Cell viability assays. Alamar Blue method: Cells were seeded on 96-well plates (2000 cells per well) and treated with the compounds RSL3, iFSP1 and (liproxstatin-1) after plating. Cell viability was assessed 48 h (unless stated otherwise) after treatment using Alamar Blue as an indicator of viable cells. Alamar blue solution was made by dissolving of 1 g resazurin sodium salt (Thermo Fischer) in 200 mL sterile PBS and sterile filtrated through a 0.22 µm filter. Stock solutions were stored at 4 °C. The working solution was made freshly by adding 200 µL of the stock solution to 25 mL growth media. After 2–4 h incubation time, viability was estimated by measuring the fluorescence using a 540/35 excitation filter and a 590/20 emission on a Spark® microplate reader (Tecan, Zürich, Switzerland).

[2] = tested on: Pfa1 Gpx4−/− overexpressing mFSP1 L360F; assay: Cell viability (Alamar blue), mFSP1 L360F
Method: as §1, §2

[3] = tested on: Pfa1 Gpx4−/− overexpressing chimeric FSP1 C4; assay: Cell viability (Alamar blue), chimeric construct C4; conditions: Mus musculus; chimeric construct C4 (human residues 181 to 240); x axis iFSP1 (μM); read-out: IC50 (dose-response toxicity)
Method: as §1
as §2, with “Switzerland). […]” for “Switzerland).”

[4] = tested on: Pfa1 Gpx4−/− overexpressing chimeric FSP1 C1; assay: Cell viability (Alamar blue), chimeric construct C1; conditions: Mus musculus; chimeric construct C1 (human residues 1 to 59); x axis iFSP1 (μM); read-out: IC50 (dose-response toxicity)
Method: as §1
as §2, with “Switzerland). […]” for “Switzerland).”

[5] = tested on: Pfa1 Gpx4−/− overexpressing hFSP1 Y296A; assay: Cell viability (Alamar blue), hFSP1 Y296A
Method: as §1, §2

[6] = tested on: Pfa1 Gpx4−/− overexpressing hFSP1 Y296A/F360A; assay: Cell viability (Alamar blue), hFSP1 Y296A/F360A
Method: as §1, §2

[7] = tested on: Pfa1 Gpx4−/− cell line overexpressing hFSP1, mFSP1 and hFSP1 F360L mutants; assay: BODIPY 581/591 C11 oxidation (flow cytometry); conditions: iFSP1 3 µM for 3 h; all conditions, highest for hFSP1 WT
Method: In total, 150,000 cells per well were seeded on 6-well dishes one day prior to the experiment. […] Cells were incubated with C11-BODIPY (581/591) (1 μM) for 30 min at 37 °C before they were harvested by trypsinisation. Subsequently, cells were resuspended in 500 μL of fresh PBS (DPBS, Gibco) and analyzed using a 488-nm laser excitation laser and fluorescence recorded on a (FACS Canto II, BD Biosciences). Data was collected from the FL1 detector (C11-BODIPY, Invitrogen) with a 502LP and 530/30 BP filter. At least 20,000 events were analyzed per sample. Data was analyzed using FlowJo Software version 10.8.1.

[8] = tested on: Pfa1 Gpx4−/− overexpressing chimeric FSP1 C2; assay: Cell viability (Alamar blue), chimeric construct C2; conditions: Mus musculus; chimeric construct C2 (human residues 59 to 120); x axis iFSP1 (μM); read-out: IC50 (dose-response toxicity)
Method: as §1
as §2, with “Switzerland). […]” for “Switzerland).”

[9] = Mus musculus, x axis iFSP1 (μM), read-out: IC50 (dose-response toxicity)

SMILES: Cc1ccc(-c2c(C#N)c(N)n3c(nc4ccccc43)c2C#N)cc1 [iFSP1]
- capacity to induce ferroptosis [1]: completely abolished the capacity of iFSP1 to induce ferroptosis
- IC50 [1, 9]: 6.18 µM
- iFSP1-mediated inhibition of FSP1 (ferroptosis induction) [2]: restored the iFSP1-mediated inhibition of mFSP1
- IC50 [2, 9]: 0.95 µM
- IC50 [3]: 8.96 µM
- IC50 [4]: 9.41 µM
- inhibitor activity (ferroptosis induction) [5]: abolishes the inhibitor activity
- IC50 [5, 9]: 5.62 µM
- inhibitor activity (ferroptosis induction) [6]: abolishes the inhibitor activity
- IC50 [6, 9]: 5.62 µM
- BODIPY-C11 oxidation induced by iFSP1 [7]: small increase
- IC50 [8]: 6.2 µM
